Experimental data published in US12269831B2, “Modulators of cystic fibrosis transmembrane conductance regulator” (Vertex Pharmaceuticals Incorporated, priority 2020, dated 2025).
Read-outs that look alike come from different tables or passages of the source.

Settings: rcm bond, 14-membered ring, DCE

Molecule `CC(C)(C)OC(=O)N(C(=O)OC(C)(C)C)c1cc(C(F)(F)F)c2nc1-c1nnc(o1)[C@@](OCc1ccccc1)(C(F)(F)F)CCC=CC[C@H](COCc1ccccc1)O2` (mixture of isomers) has a ring closure, isolated yield (from C=CCC[C@@](OCc1ccccc1)(c1nnc(-c2nc(O[C@H](CC=C)COCc3ccccc3)c(C(F)(F)F)cc2N(C(=O)OC(C)(C)C)C(=O)OC(C)(C)C)o1)C(F)(F)F, Zhan-1B, 3.72 mM, 60.0 °C, 2.5 h) of 46%.
Work on `CC(C)(C)OC(=O)Nc1cc(C(F)(F)F)c2nc1-c1nnc(o1)C(OCc1ccccc1)(C(F)(F)F)CC=CCc1ccccc1O2` (mixture of isomers) yielded a ring closure, isolated yield (from C=CCc1ccccc1Oc1nc(-c2nnc(C(CC=C)(OCc3ccccc3)C(F)(F)F)o2)c(NC(=O)OC(C)(C)C)cc1C(F)(F)F, Grubbs II, 5.12 mM, 70.0 °C, 21.0 h) of 62%.
`C[C@@H]1CC=CCC[C@](OCc2ccccc2)(C(F)(F)F)C2=NN=C(O2)c2nc(c(C(F)(F)F)cc2Cl)O1` (mixture of isomers) showed a ring closure, isolated yield (from C=CCC[C@@](OCc1ccccc1)(c1nnc(-c2nc(O[C@H](C)CC=C)c(C(F)(F)F)cc2Br)o1)C(F)(F)F, Zhan-1B, 2.2 mM, 60.0 °C, 2.0 h) of 47%.
With `C[C@@H]1CC=CCC[C@](OCc2ccccc2)(C(F)(F)F)C2=NN=C(O2)c2nc(c(C(F)F)cc2NC(=O)OC(C)(C)C)O1` (mixture of isomers) the ring closure, isolated yield (from C=CCC[C@@](OCc1ccccc1)(c1nnc(-c2nc(O[C@H](C)CC=C)c(C(F)F)cc2NC(=O)OC(C)(C)C)o1)C(F)(F)F, Zhan-1B, 3.0 mM, 60.0 °C, 2.0 h) was 26%.
Molecule `C[C@@H]1CC=CCc2cn(Cc3ccccc3)nc2C2=NN=C(O2)c2nc(c(C(F)(F)F)cc2NC(=O)OC(C)(C)C)O1` (mixture of isomers) has a ring closure, isolated yield (from C=CCc1cn(Cc2ccccc2)nc1-c1nnc(-c2nc(O[C@H](C)CC=C)c(C(F)(F)F)cc2NC(=O)OC(C)(C)C)o1, Zhan-1B, 2.9 mM, 70.0 °C, 2.0 h) of 37%.
